Results: patent US9006450B2 (Boehringer Ingelheim International GmbH, priority 2010, dated 2015)

Molecular target: T1, human ACC2 (Homo sapiens, UniProt O00763)
T1 construct: made in house; host or cells: insect cells (baculoviral expression system)
Experiment: ACC2 assay, spectrophotometric 384 well assay (NADH-linked, coupled lactate dehydrogenase/pyruvate kinase)
Type: biochemical
Conditions: ACC2 assay, hACC2 construct lacking 128 N-terminal amino acids, 25° C., 340 nm; read-out: IC50
Outline: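 Human ACC2 lacking N-terminal 128 aa, baculovirus/insect-cell expressed, anion-exchange purified; 100 mM Tris pH 7.5, 10 mM citrate, 25 mM KHCO3, 1% DMSO. Started with 200 μM NADH and acetyl-CoA plus 500 μM ATP; PK/LDH-coupled A340 decrease read 15 min at 25° C. IC50 by nonlinear fit of low-control-subtracted slopes.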

T1 sequence (O00763 129-2458 limits assumed): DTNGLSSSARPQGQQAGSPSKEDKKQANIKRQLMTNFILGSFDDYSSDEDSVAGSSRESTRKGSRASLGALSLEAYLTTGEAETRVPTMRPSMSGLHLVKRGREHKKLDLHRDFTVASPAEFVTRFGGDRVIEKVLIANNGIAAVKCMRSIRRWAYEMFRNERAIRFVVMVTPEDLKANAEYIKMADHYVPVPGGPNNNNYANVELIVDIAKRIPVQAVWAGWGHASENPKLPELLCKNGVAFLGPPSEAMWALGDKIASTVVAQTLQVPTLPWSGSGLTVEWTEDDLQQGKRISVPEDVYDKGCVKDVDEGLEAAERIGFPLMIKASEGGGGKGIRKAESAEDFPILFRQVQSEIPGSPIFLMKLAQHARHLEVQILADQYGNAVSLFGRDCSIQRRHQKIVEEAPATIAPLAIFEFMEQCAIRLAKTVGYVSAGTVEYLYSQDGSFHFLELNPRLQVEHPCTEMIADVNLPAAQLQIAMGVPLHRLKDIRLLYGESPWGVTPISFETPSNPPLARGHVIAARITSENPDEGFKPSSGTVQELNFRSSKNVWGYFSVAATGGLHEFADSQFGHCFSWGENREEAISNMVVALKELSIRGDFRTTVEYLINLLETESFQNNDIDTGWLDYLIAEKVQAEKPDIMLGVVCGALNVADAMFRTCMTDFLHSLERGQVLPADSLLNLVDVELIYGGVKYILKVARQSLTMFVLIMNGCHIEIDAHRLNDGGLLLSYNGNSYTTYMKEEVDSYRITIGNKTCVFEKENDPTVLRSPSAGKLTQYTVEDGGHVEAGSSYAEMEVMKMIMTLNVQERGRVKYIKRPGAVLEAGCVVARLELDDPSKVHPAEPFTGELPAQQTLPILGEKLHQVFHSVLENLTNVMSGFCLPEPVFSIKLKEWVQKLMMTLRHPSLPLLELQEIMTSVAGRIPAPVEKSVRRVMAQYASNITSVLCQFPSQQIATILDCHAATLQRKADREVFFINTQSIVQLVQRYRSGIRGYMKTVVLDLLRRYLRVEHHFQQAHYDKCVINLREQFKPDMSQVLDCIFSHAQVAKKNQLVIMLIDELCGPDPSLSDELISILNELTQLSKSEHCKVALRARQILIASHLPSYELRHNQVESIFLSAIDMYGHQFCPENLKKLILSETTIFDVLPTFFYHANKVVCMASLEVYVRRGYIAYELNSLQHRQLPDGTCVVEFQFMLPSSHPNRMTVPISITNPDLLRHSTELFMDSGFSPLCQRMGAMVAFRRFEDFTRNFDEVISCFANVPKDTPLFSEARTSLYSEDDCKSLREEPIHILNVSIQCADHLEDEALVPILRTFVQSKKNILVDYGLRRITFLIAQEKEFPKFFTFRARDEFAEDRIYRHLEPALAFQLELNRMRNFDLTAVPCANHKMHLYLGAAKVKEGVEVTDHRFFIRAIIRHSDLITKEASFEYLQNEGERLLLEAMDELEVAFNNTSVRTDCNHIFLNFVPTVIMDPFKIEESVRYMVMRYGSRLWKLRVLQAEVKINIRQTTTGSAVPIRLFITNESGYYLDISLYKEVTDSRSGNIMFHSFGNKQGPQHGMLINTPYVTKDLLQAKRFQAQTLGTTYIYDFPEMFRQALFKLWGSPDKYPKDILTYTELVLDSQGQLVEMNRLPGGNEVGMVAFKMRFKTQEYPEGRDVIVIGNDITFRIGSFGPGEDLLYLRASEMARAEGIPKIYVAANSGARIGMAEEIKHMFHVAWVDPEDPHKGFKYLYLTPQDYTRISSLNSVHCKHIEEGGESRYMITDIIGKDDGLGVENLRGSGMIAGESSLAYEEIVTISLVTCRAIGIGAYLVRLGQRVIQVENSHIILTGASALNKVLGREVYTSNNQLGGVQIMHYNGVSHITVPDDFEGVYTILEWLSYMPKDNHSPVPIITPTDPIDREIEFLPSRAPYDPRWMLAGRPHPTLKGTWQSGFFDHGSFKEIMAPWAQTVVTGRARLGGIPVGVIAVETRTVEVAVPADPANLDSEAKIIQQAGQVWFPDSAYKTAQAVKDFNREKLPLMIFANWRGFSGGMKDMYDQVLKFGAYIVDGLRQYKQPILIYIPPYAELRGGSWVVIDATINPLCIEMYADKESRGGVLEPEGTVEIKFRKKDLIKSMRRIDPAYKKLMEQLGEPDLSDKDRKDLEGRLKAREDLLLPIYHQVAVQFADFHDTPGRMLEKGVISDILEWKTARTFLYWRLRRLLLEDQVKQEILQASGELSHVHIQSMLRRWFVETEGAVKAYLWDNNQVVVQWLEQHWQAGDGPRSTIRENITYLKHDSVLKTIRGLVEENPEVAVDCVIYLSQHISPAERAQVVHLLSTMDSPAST

| SMILES | IC50 [nM] |
| --- | --- |
| CC(=O)N[C@@H](C)c1ccc(C2CCN(c3ccc(-c4nc5ccccc5[nH]4)cn3)CC2)cc1 [Example 5.25] | 2400 |
| CC(=O)N[C@@H](C)c1ccc(C2CCN(c3cccc4c3OCCO4)CC2)cc1 [Example 1.98] | 470 |
| CCOc1ccc(N2CCC(c3ccc([C@H](C)NC(=O)CC4CC4)cc3)CC2)cc1 [Example 6.13] | 1100 |
| CC(=O)N[C@@H](C)c1ccc(C2CCN(c3ccnc(Oc4cncnc4)c3)CC2)cc1 [Example 3.5] | 590 |
| CSc1ccc(-c2cnc(N3CCC(c4ccc([C@H](C)NC(C)=O)cc4)CC3)nc2)c(C(F)(F)F)c1 [Example 10.77] | 1600 |
| CC(=O)N[C@@H](C)c1ccc(C2CCN(c3ncc(-c4ccc5[nH]ccc5c4)cn3)CC2)cc1 [Example 10.46] | 140 |
| CC(=O)N[C@@H](C)c1ccc(C2CCN(c3ccc(OC4CCC4)c(F)c3)CC2)cc1 [Example 8.13] | 110 |
| CCOc1ccc(N2CCC(c3ccc([C@H](C)NC(=O)c4cc[nH]n4)cc3)CC2)cc1 [Example 6.29] | 3600 |
| CC(=O)N[C@@H](C)c1ccc(C2CCN(c3ccc(OCC4CCC4)c(C)c3)CC2)cc1 [Example 9.37] | 690 |
| CCCOc1ccc(N2CCC(c3ccc([C@H](C)NC(=O)C4CC4)cc3)CC2)nc1 [Example 5.57] | 230 |
| CC(=O)N[C@@H](C)c1ccc(C2CCN(c3ccc(OC4CC4)cc3C)CC2)cc1 [Example 1.92] | 120 |
| CC(=O)N[C@@H](C)c1ccc(C2CCN(c3ncc(-c4ccc5c(c4)OCO5)cn3)CC2)cc1 [Example 10.87] | 70 |
| CC(=O)N[C@@H](C)c1ccc(C2CCN(c3ccc(OC4CCCC4)c(C)c3)CC2)cc1 [Example 8.35] | 490 |
| C/C=C/CCOc1ccc(N2CCC(c3ccc([C@H](C)NC(C)=O)cc3)CC2)cc1 [Example 8.64] | 120 |
| COCc1ccc(-c2cnc(N3CCC(c4ccc([C@H](C)NC(C)=O)cc4)CC3)nc2)cc1 [Example 10.32] | 410 |
| CC(=O)N[C@@H](C)c1ccc(C2CCN(c3ccc4ccccc4n3)CC2)cc1 [Example 4.3] | 450 |
| CC(=O)N[C@@H](C)c1ccc(C2CCN(c3ccc(OCC4CC4)c(C#N)c3)CC2)cc1 [Example 9.40] | 2900 |
| CCCOc1ccc(N2CCC(c3ccc(C(CC)NC(C)=O)cc3)CC2)cc1 (stereo not drawn) [Example 1.200] | 450 |
| CC(=O)NC(C)Cc1ccc(C2CCN(c3ccc(OCC(C)C)cc3)CC2)cc1 (stereo not drawn) [Example 2.7] | 1600 |
| CC(=O)N[C@@H](C)c1ccc(C2CCN(c3ccc(OCCC4CC4)cc3)CC2)cc1 [Example 8.63] | 100 |
| CC(=O)N[C@@H](C)c1ccc(C2CCN(c3ncc4nc(-c5ccccc5)oc4n3)CC2)cc1 [Example 4.28] | 60 |

| SMILES | IC50 [nM] |
| --- | --- |
| CC(=O)N[C@@H](C)c1ccc(C2CCN(c3nc4ccccc4s3)CC2)cc1 [Example 4.2] | 1300 |
| COc1ccc(-c2cnc(N3CCC(c4ccc([C@H](C)NC(C)=O)cc4)CC3)nc2)cn1 [Example 10.2] | 200 |
| C[C@H](NC(=O)C1CC1)c1ccc(C2CCN(c3ncc(-c4ccccc4F)cn3)CC2)cc1 [Example 10.103] | 560 |
| COC(=O)c1cncc(N2CCC(c3ccc([C@H](C)NC(C)=O)cc3)CC2)n1 [Example 5.54] | 9300 |
| CCOc1ccc(N2CCC(c3ccc([C@H](C)NC(=O)/C=N/OC)cc3)CC2)cc1 [Example 6.43] | 1100 |
| CC(=O)N[C@@H](C)c1ccc(C2CCN(c3ncc(-c4cscc4C)cn3)CC2)cc1 [Example 10.56] | 320 |
| CC(=O)N[C@@H](C)c1ccc(C2CCN(c3nc(Cl)cc4ccccc34)CC2)cc1 [Example 4.8] | 970 |
| CC(=O)N[C@@H](C)c1ccc(C2CCN(c3ccnc(C(C)C)n3)CC2)cc1 [Example 4.25] | 230 |
| CC(=O)N[C@@H](C)c1ccc(C2CCN(c3nc4ccccc4nc3C)CC2)cc1 [Example 4.32] | 2300 |
| CC(=O)N[C@@H](C)c1ccc(C2CCN(c3ncnc4ccsc34)CC2)cc1 [Example 4.24] | 2100 |
| CC(=O)N[C@@H](C)c1ccc(C2CCN(c3cccc(OCc4ccccc4)c3)CC2)cc1 [Example 9.17] | 550 |
| CC(=O)N[C@@H](C)c1ccc(C2CCN(c3ncnc4ccccc34)CC2)cc1 [Example 4.7] | 950 |
| CC(=O)N[C@@H](C)c1ccc(C2CCN(c3ccc(Oc4cncnc4)nc3)CC2)cc1 [Example 1.110] | 4500 |
| CC(=O)N[C@@H](C)c1ccc(C2CCN(c3ncc(-c4ccc5cc[nH]c5c4)cn3)CC2)cc1 [Example 10.114] | 410 |
| CCOc1ccc(N2CCC(c3ccc([C@H](C)NC(C)=O)cc3)CC2)nc1 [Example 5.1, (S)—N-{1-[4-(5′-Ethoxy-3,4,5,6-tetrahydro-2H-[1,2′]bipyridinyl-4-yl)-phenyl]-ethyl}-acetamide] | 200 |
| CC(=O)N[C@@H](C)c1ccc(C2CCN(c3ncc(-c4ccccc4C)cn3)CC2)cc1 [Example 10.8] | 200 |
| CC(=O)N[C@@H](C)c1ccc(C2CCN(c3ncc(-c4ccccc4C#N)cn3)CC2)cc1 [Example 10.55] | 640 |
| CCCC(C)Oc1ccc(N2CCC(c3ccc([C@H](C)NC(C)=O)cc3)CC2)cc1C (stereo partly drawn) [Example 8.56] | 1000 |
| CCCOc1ccc(N2CCC(c3ccc([C@H](C)NC(=O)C4CC4)cc3)CC2)c(C#N)c1 [Example 1.115] | 110 |
| CC(=O)N[C@@H](C)c1ccc(C2CCN(c3ncc(-c4ccc(F)c(C)c4)cn3)CC2)cc1 [Example 10.49] | 260 |
| C[C@H](NC(=O)N(C)C)c1ccc(C2CCN(c3ncc(-c4ccc(F)cc4)cn3)CC2)cc1 [Example 10.108] | 90 |

Now from value to compound:

| IC50 [nM] | SMILES |
| --- | --- |
| 13300 | CC(=O)N[C@@H](C)c1ccc(C2CCN(c3ncc(C(=O)NC[C@H](O)CO)cn3)CC2)cc1 [Example 18.50] |
| 20500 | COc1ccc(CNC(=O)c2cnc(N3CCC(c4ccc([C@H](C)NC(C)=O)cc4)CC3)nc2)cc1 [Example 18.19] |
| 7100 | CCOc1ccc(N2CCC(c3ccc([C@H](C)NC(=O)Nc4ccnnc4)cc3)CC2)cc1 [Example 14.58] |
| 1400 | CCOc1ncc(N2CCC(c3ccc([C@H](C)NC(=O)N(C)C)cc3)CC2)cn1 [Example 16.7] |
| 470 | C[C@H](NC(=O)C1CC1)c1ccc(C2CCN(c3nc(N4CCCC4)ncc3F)CC2)cc1 [Example 11.121] |
| 450 | CC(=O)N[C@@H](C)c1ccc(C2CCN(c3ccnc(OCCC4CC4)n3)CC2)cc1 [Example 11.4] |
| 40 | CC(=O)N[C@@H](C)c1ccc(C2CCN(c3ccc(-c4ccc(F)cc4)cn3)CC2)cc1 [Example 10.310] |
| 6600 | CC(=O)N[C@@H](C)c1ccc(C2CCN(c3ccnc(NC(C)c4ccccc4)n3)CC2)cc1 (stereo partly drawn) [Example 11.39] |
| 17200 | CC(=O)N[C@@H](C)c1ccc(C2CCN(c3ncc(C(=O)NCC(N)=O)cn3)CC2)cc1 [Example 18.45] |
| 1500 | COc1cccc(COc2cc(N3CCC(c4ccc([C@H](C)NC(C)=O)cc4)CC3)ccn2)c1 [Example 19.8] |
| 15500 | CC(=O)N[C@@H](C)c1ccc(C2CCN(c3ncc(C(=O)NCC4CCNCC4)cn3)CC2)cc1 [Example 18.60] |
| 10300 | CCc1noc(N2CCC(c3ccc([C@H](C)NC(C)=O)cc3)CC2)n1 [Example 25.2] |
| 970 | CC(=O)N[C@@H](C)c1ccc(C2CCN(c3ccc4oc(C)nc4c3)CC2)cc1 [Example 15.13] |
| 26400 | CC(=O)N[C@@H](C)c1ccc(C2CCN(c3cc(NCc4ccccn4)ncn3)CC2)cc1 [Example 11.67] |
| 1600 | CC(=O)N[C@@H](C)c1ccc(C2CCN(c3ccnc(NCCC4CC4)n3)CC2)cc1 [Example 11.106] |
| 740 | CC(=O)N[C@@H](C)c1ccc(C2CCN(c3ncc(C(=O)N4CCCCC4)cn3)CC2)cc1 [Example 18.11] |
| 1900 | CCOc1ccc(N2CCC(c3ccc([C@H](C)NC(=O)N(CC)CC)cc3)CC2)cc1 [Example 14.67] |
| 2300 | COC1CCN(c2cc(N3CCC(c4ccc([C@H](C)NC(C)=O)cc4)CC3)ncn2)CC1 [Example 11.81] |
| 40 | CC(=O)N[C@@H](C)c1ccc(C2CCN(c3ncc(-c4cccs4)cn3)CC2)cc1 [Example 10.130] |
| 600 | CC(=O)N[C@@H](C)c1ccc(C2CCN(c3ccnc(N(C)C)n3)CC2)cc1 [Example 11.104] |
| 200 | CCCN(C)c1nccc(N2CCC(c3ccc([C@H](C)NC(C)=O)cc3)CC2)n1 [Example 11.69] |
| 880 | C[C@H](NC(=O)C1CC1)c1ccc(C2CCN(c3nc(OC4CCC4)ncc3F)CC2)cc1 [Example 11.124] |
| 290 | CCOc1ccc(N2CCC(c3ccc([C@H](C)NC(C)=S)cc3)CC2)c(F)c1 [Example 38.2] |
| 1700 | CCOc1ccc(N2CCC(c3ccc([C@H](C)NC(=O)CC(N)=O)cc3)CC2)cc1 [Example 33.1, (S)—N-(1-{4-[1-(4-Ethoxyphenyl)piperidin-4-yl]phenyl}ethyl)malonamide] |
| 710 | CC(=O)N[C@@H](C)c1ccc(C2CCN(c3noc(C(C)C)n3)CC2)cc1 [Example 26.3] |
| 1100 | CC(=O)N[C@@H](C)c1ccc(C2CCN(c3ccnc(-c4ccc5c(c4)OCO5)n3)CC2)cc1 [Example 22.1, (S)—N-(1-{4-[1-(2-Benzo[1,3]dioxol-5-yl-pyrimidin-4-yl)-piperidin-4-yl]-phenyl}-ethyl)-acetamide] |
| 240 | CCC(CC)Oc1cc(N2CCC(c3ccc([C@H](C)NC(C)=O)cc3)CC2)ccn1 [Example 19.24] |
| 340 | CC(=O)N[C@@H](C)c1ccc(C2CCN(c3ncc(CC(C)C)cn3)CC2)cc1 [Example 10.201] |
| 16800 | CC(=O)N[C@@H](C)c1ccc(C2CCN(c3ncc(C(=O)N(C)CCN(C)C)cn3)CC2)cc1 [Example 18.43] |
| 130 | CC(=O)N[C@@H](C)c1ccc(C2CCN(c3ccc(OCC4CC4)cc3C#N)CC2)cc1 [Example 13.2] |
